Data: patent US9809583B2 (priority 2014, dated 2017)
Like-named read-outs stand apart in the source and are kept apart here.

Legend:
castrated male rats = test: Efficacy test in castrated male rat (Hershberger assay); type: in vivo, SD (Sprague-Dawley) rat; conditions: castrated male SD rats, oral once a day for 14 days
Protocol: SD (Sprague-Dawley) male rats (7-week-old) were castrated under ketamine/xylazine anesthesia, and 5 rats were randomly assigned to one group. From the next day, the agonists were dissolved in a vehicle solution and orally administered at a dose of 5 ml per kg once a day for 14 days. As the vehicle, DMSO, Co-solvent, and DW were prepared at a ratio of 4:80:16 (v/v/v), and Co-solvent was prepared by mixing PEG400, Ethanol, and Tween 80 at a ratio of 85:10:5 (v/v/v). 24 hours after last administration of the drug, their body weight was measured and killed. Thereafter, levator ani muscle, ventral prostate, and seminal vesicles were removed and weighed (Hershberger assay). The following Table 6 represents the result of the efficacy test in castrated male rats.

androgen receptor (hAR) [1] = target: T1, androgen receptor (hAR) (Homo sapiens (Human), UniProt P10275); test: Test of transcriptional activity (hAR / ARE-Luc dual-luciferase assay in CHO cells); type: cell-based; conditions: EC50 [nM] (mean ± SE), CHO cells with hAR and ARE-Luc, 24 hours; 10 nM DHT = 100%
Summary of the method: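 CHO cells cultured 24 h, then transfected with hAR and ARE-Luc plasmids. Transfected cells treated with 0.1˜10,000 nM compound for 24 h; transcriptional activity read by dual-luciferase reporter.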

androgen receptor (hAR) [2] = target: T1, androgen receptor (hAR); test: biochemical; type: binding
Protocol: In order to examine binding ability of the agonists of the present invention to androgen receptors, the following in-vitro experiment was performed. African green monkey kidney fibroblast-like cell line, COS-7 (ATCC, #CRL-1651) was seeded in a 48-well plate at a density of 2.5×10^4 cells/well, and cultured for 24 hours. Then, a plasmid hAR-mixed medium was added thereto. […] Thereafter, the cells were lysed and the amount of [3H]MIB bound to the intracellular androgen receptors was measured using a radiation dosimeter.

[3] = 1 nM [3H]MIB, hAR-transfected COS-7 cells, 2 hours, read-out: IC50 [nM] (mean ± SE)

T1 sequence (P10275 whole entry): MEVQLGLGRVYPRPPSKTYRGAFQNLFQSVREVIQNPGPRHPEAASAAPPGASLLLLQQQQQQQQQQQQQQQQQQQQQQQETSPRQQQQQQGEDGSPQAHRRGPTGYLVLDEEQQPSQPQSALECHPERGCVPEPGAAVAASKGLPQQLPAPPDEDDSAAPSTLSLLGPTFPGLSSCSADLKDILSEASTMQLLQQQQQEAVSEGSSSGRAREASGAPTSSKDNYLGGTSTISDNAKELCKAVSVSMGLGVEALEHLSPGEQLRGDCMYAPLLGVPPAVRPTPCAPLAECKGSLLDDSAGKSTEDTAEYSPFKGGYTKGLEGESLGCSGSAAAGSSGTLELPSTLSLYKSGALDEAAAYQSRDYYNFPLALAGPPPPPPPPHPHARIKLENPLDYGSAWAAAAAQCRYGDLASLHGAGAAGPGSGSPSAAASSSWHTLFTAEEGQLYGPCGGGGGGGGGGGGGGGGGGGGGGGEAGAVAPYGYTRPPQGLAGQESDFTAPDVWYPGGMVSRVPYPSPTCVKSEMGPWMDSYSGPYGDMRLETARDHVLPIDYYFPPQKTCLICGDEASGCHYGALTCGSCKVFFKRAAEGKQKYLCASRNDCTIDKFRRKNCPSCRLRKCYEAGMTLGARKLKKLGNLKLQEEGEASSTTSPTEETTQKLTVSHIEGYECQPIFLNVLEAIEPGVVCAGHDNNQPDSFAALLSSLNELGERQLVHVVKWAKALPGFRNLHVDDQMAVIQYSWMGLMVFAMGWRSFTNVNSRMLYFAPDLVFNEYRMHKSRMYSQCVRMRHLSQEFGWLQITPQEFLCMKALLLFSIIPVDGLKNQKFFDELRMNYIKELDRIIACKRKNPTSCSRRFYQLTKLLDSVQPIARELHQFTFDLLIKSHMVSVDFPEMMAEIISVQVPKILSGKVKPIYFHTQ

N#Cc1ccc(OC[C@@H]2CN(c3ccc(C#N)c(C(F)(F)F)c3)[C@@H](C(F)(F)F)O2)cc1 [Example 19, 4-((2R,5S)-5-((4-cyanophenoxy)methyl)-2-(trifluoromethyl)oxazolidin-3-yl)-2-(trifluoromethyl)benzonitrile] was tested. Which “levator ani muscle weight % relative to intact control group” value (castrated male rats; 0.3 mg/kg) did it give?
The value was 7.2 ± 4.3%.

And the “seminal vesicles weight % relative to intact control group” value (castrated male rats; 0.3 mg/kg)?
The value was 4.8 ± 1.3%.

And the “ventral prostate weight % relative to intact control group” value (castrated male rats; 0.3 mg/kg)?
The value was 1.7 ± 0.6%.

And the “levator ani muscle weight % relative to intact control group” value (castrated male rats; 1 mg/kg)?
The value was 45.9 ± 5.8%.

And the “seminal vesicles weight % relative to intact control group” value (castrated male rats; 1 mg/kg)?
The value was 78.2 ± .1%.

What about the “ventral prostate weight % relative to intact control group” value (castrated male rats; 1 mg/kg) of the same molecule?
The value was 10.2 ± 3.9%.

And the “levator ani muscle weight % relative to intact control group” value (castrated male rats; 3 mg/kg)?
Its value is 70.6 ± 6.6%.

What about the “seminal vesicles weight % relative to intact control group” value (castrated male rats; 3 mg/kg) of the same molecule?
Its value is 17.3 ± 5.6%.

What about the “ventral prostate weight % relative to intact control group” value (castrated male rats; 3 mg/kg) of the same molecule?
The value was 11.4 ± 3.0%.

What about the “levator ani muscle weight % relative to intact control group” value (castrated male rats; 10 mg/kg) of the same molecule?
Its value is 63.9 ± 4.8%.

And the “seminal vesicles weight % relative to intact control group” value (castrated male rats; 10 mg/kg)?
Its value is 22.9 ± 4.3%.

And the “ventral prostate weight % relative to intact control group” value (castrated male rats; 10 mg/kg)?
The value was 14.4 ± 2.7%.

And the “levator ani muscle weight % relative to intact control group” value (castrated male rats; 30 mg/kg)?
The value was 78.4 ± 11.0%.

And the “seminal vesicles weight % relative to intact control group” value (castrated male rats; 30 mg/kg)?
The value was 33.4 ± 2.0%.

And the “ventral prostate weight % relative to intact control group” value (castrated male rats; 30 mg/kg)?
Its value is 18.3 ± 4.5%.

What about the “levator ani muscle weight % relative to intact control group” value (castrated male rats; 100 mg/kg) of the same molecule?
Its value is 68.3 ± 7.3%.

And the “seminal vesicles weight % relative to intact control group” value (castrated male rats; 100 mg/kg)?
Its value is 36.4 ± 9.2%.

What about the “ventral prostate weight % relative to intact control group” value (castrated male rats; 100 mg/kg) of the same molecule?
The value was 18.0 ± 5.2%.

And the EC50 (androgen receptor (hAR) [1])?
Its EC50 is 1 nM.

And the IC50 (androgen receptor (hAR) [2]; [3])?
Its IC50 is 7.6 nM.

For CC(=O)Nc1ccc(OC[C@@H]2CN(c3ccc(C#N)c(C(F)(F)F)c3)[C@@H](C(F)(F)F)O2)cc1 [Example 25, N-(4-(((2R,5S)-3-(4-cyano-3-(trifluoromethyl)phenyl)-2-(trifluoromethyl)oxazolidin-5-yl)methoxy)phenyl)acetamide], which “levator ani muscle weight % relative to intact control group” value (castrated male rats; 0.01 mg/kg) is on record?
Its value is 6.7 ± 1.6%.

What about the “seminal vesicles weight % relative to intact control group” value (castrated male rats; 0.01 mg/kg) of the same molecule?
Its value is 0.9 ± 0.2%.

What about the “ventral prostate weight % relative to intact control group” value (castrated male rats; 0.01 mg/kg) of the same molecule?
Its value is 1.8 ± 0.3%.

And the “levator ani muscle weight % relative to intact control group” value (castrated male rats; 0.03 mg/kg)?
The value was 8.4 ± 1.5%.

And the “seminal vesicles weight % relative to intact control group” value (castrated male rats; 0.03 mg/kg)?
Its value is 0.7 ± 0.2%.

And the “ventral prostate weight % relative to intact control group” value (castrated male rats; 0.03 mg/kg)?
The value was 1.0 ± 0.4%.

And the “levator ani muscle weight % relative to intact control group” value (castrated male rats; 0.1 mg/kg)?
Its value is 26.5 ± 5.8%.

What about the “seminal vesicles weight % relative to intact control group” value (castrated male rats; 0.1 mg/kg) of the same molecule?
The value was 0.9 ± 0.2%.

What about the “ventral prostate weight % relative to intact control group” value (castrated male rats; 0.1 mg/kg) of the same molecule?
Its value is 3.2 ± 0.9%.

What about the “levator ani muscle weight % relative to intact control group” value (castrated male rats; 0.3 mg/kg) of the same molecule?
The value was 38.5 ± 4.8%.

What about the “seminal vesicles weight % relative to intact control group” value (castrated male rats; 0.3 mg/kg) of the same molecule?
Its value is 3.4 ± 0.4%.

What about the “ventral prostate weight % relative to intact control group” value (castrated male rats; 0.3 mg/kg) of the same molecule?
The value was 4.8 ± 1.6%.

And the “levator ani muscle weight % relative to intact control group” value (castrated male rats; 1 mg/kg)?
Its value is 61.1 ± 6.3%.

What about the “seminal vesicles weight % relative to intact control group” value (castrated male rats; 1 mg/kg) of the same molecule?
The value was 4.7 ± 1.2%.

And the “ventral prostate weight % relative to intact control group” value (castrated male rats; 1 mg/kg)?
Its value is 10.9 ± 3.4%.

And the “levator ani muscle weight % relative to intact control group” value (castrated male rats; 3 mg/kg)?
The value was 79.8 ± 6.7%.

What about the “seminal vesicles weight % relative to intact control group” value (castrated male rats; 3 mg/kg) of the same molecule?
Its value is 8.7 ± 1.6%.

And the “ventral prostate weight % relative to intact control group” value (castrated male rats; 3 mg/kg)?
The value was 12.7 ± 2.5%.

What about the EC50 (androgen receptor (hAR) [1]) of the same molecule?
Its EC50 is 0.7 nM.

And the IC50 (androgen receptor (hAR) [2]; [3])?
Its IC50 is 8.5 nM.

How did the EC50 (androgen receptor (hAR) [1]) turn out when N#Cc1ccc(N2C[C@@H](COc3ccc([N+](=O)[O-])cc3F)O[C@@H]2C(F)(F)F)cc1C(F)(F)F [Example 33, 4-((2R,5S)-5-((2-fluoro-4-nitrophenoxy)methyl)-2-(trifluoromethyl)oxazolidin-3-yl)-2-(trifluoromethyl)benzonitrile] was run?
Its EC50 is 10.7 nM.

And the IC50 (androgen receptor (hAR) [2]; [3])?
Its IC50 is 10.4 nM.

What does the source list for CN(C)C(=O)c1ccc(OC[C@@H]2CN(c3ccc(C#N)c(C(F)(F)F)c3)[C@@H](C(F)(F)F)O2)cc1 [Example 34, 4-(((2R,5S)-3-(4-cyano-3-(trifluoromethyl)phenyl)-2-(trifluoromethyl)oxazolidin-5-yl)methoxy)-N,N-dimethylbenzamide]?
EC50 (androgen receptor (hAR) [1]): 111 nM; IC50 (androgen receptor (hAR) [2]): 24.1 nM

For N#Cc1ccc(N2C[C@@H](COc3ccc(Cl)cc3)O[C@@H]2C(F)(F)F)cc1C(F)(F)F [Example 56, 4-((2R,5S)-5-((4-chlorophenoxy)methyl)-2-(trifluoromethyl)oxazolidin-3-yl)-2-(trifluoromethyl)benzonitrile], which EC50 (androgen receptor (hAR) [1]) is on record?
The EC50 was 75.1 nM.

And the IC50 (androgen receptor (hAR) [2]; [3])?
The IC50 was 75.1 nM.
